Converted amounts (≈) assume the structure as drawn. Read-outs that look alike come from different tables or passages of the source. Bridge positions count the residues as written; N and C are the ends. Square brackets hold non-standard residues; d marks the D form. Peptide text beside a SMILES is read from it. βAla = NCCC(=O)O
Key:
Format in all cases: cell-based
human RBCs = test: Hemolysis of human RBCs
Method: (§1) Peptide variants of D-CONGA (SEQ ID NO: 1) were tested for activity against E. coli, K. pneumoniae, and S. aureus. Minimum Inhibitory Concentrations (MIC) were measured in 96-well plates by broth dilution. Peptides were serially diluted in buffer or in buffer containing 1×10^9 human RBC/ml. Following 1 hr. incubation, bacteria in growth media were added and the plates were incubated overnight at 37° C. Sterilized, wells were identified to determine MIC. Hemolysis was measured by incubating 1×10^8 human RBCs with serially diluted peptide for 30 minutes followed by centrifugation of the cells and measurements of the released hemoglobin in the supernatant by absorbance at 410 nm. The value for 100% hemolysis was established by treatment with the detergent Triton-X100. Toxicity was measured by incubating serially diluted peptide with WI38 human fibroblast cells in the presence of SYTOX Green, a DNA binding dye that reports on cell death by membrane permeabilization. The peptide concentration that gives 50% cytotoxicity by relative SYTOX Green fluorescence, is denoted EC50.
Peptide was serially diluted in PBS starting at a concentration of 100 μM. The final volume of peptide in each well was 50 μL. To each well, 50 μL of RBCs in PBS at 2×10^8 cells/mL was added. As a positive lysis control, 1% triton was used. The mixtures were incubated at 37° C. for 1 hour, after which they were centrifuged at 1000 g for 5 minutes. After centrifugation, 10 μL of supernatant was transferred to 90 μL of DI H2O in a fresh 96-well plate. The absorbance of released hemoglobin at 410 nm was recorded and the fractional hemolysis was calculated based on the 100% and 0% lysis controls.
(§2) MIC values were reported in μM peptide against gram-negative E. coli (EC), P. aeruginosa (PA), and gram-positive S. aureus (SA). The two columns under each organism are for assays performed in the absence (−) and presence (+) of 1×10^9 human RBC/ml. “>30” means that sterilization was not observed at 30 μM, the highest concentration tested. The column marked “hemolysis” is the fractional hemolysis of 1×10^8 human RBC/ml at 100 μM peptide determined from measurements of serially diluted peptide, starting from 100 μM. The column marked “EC 50” contains the concentration of peptide that kills 50% of WI-38 human fibroblast cells assayed by entry of SYTOX™ Green DNA binding dye.

K. pneumoniae = settings: for MIC in Broth Dilution, K. Pneumoniae, RBC +: presence of 1×10^9 human RBC/ml; for MIC, K. pneumoniae, 10^9 cells/ml RBC: with 10^9 human RBC/ml
Method: as §1
(§3) Antimicrobial peptides and conventional antibiotics were prepared at 5-times the final concentration needed in 0.025% acetic acid. The antibiotics were serially diluted by a factor of 2:3 horizontally across 96-well plates from Corning, 25 μL per well. One column was reserved for controls. For the assays performed in the presence of RBC, type O+ human RBCs at 0 or 2.5×10^9 cells/mL were added in 50 μL aliquots to all wells. Following a 30-minute incubation, 50 μL of TSB, inoculated with 5×10^5 CFU/mL, was added to all wells, and plates were incubated overnight at 37° C. Following overnight incubation at 37° C., the OD600 was measured (values of less than 0.1 were considered sterilized). To assess bacterial growth in the assays with RBC, the OD600 was measured after a second day inoculation with 10 μL of solution from the original plate added to 100 μL of sterile TSB followed by overnight incubation.
as §2

S. aureus = settings: for MIC in Broth Dilution, S. Aureus, RBC −: absence of RBC; for MIC in Broth Dilution, S. Aureus, RBC − / MIC in Broth Dilution, S. Aureus, RBC +: Table 3; for MIC, S. aureus, No RBC / MIC, S. aureus, 10^9 cells/ml RBC: Table 2; for MIC in Broth Dilution, S. Aureus, RBC +: presence of 1×10^9 human RBC/ml; for MIC, S. aureus, 10^9 cells/ml RBC: with 10^9 human RBC/ml
Method: as §1, §3, §2

E. coli = settings: for MIC in Broth Dilution, E. coli, RBC −: absence of RBC; for MIC in Broth Dilution, E. coli, RBC − / MIC in Broth Dilution, E. coli, RBC +: Table 3; for MIC, E. coli, No RBC / MIC, E. coli, 10^9 cells/ml RBC: Table 2; for MIC in Broth Dilution, E. coli, RBC +: presence of 1×10^9 human RBC/ml; for MIC, E. coli, 10^9 cells/ml RBC: with 10^9 human RBC/ml
Method: as §1, §3, §2

[1] = tested on: WI-38 human fibroblast cells; test: SYTOX Green cytotoxicity assay
Method: Peptide variants of D-CONGA (SEQ ID NO: 1) were tested for activity against E. coli, K. pneumoniae, and S. aureus. Minimum Inhibitory Concentrations (MIC) were measured in 96-well plates by broth dilution. […] Following 1 hr. incubation, bacteria in growth media were added and the plates were incubated overnight at 37° C. Sterilized, wells were identified to determine MIC. […] The value for 100% hemolysis was established by treatment with the detergent Triton-X100. Toxicity was measured by incubating serially diluted peptide with WI38 human fibroblast cells in the presence of SYTOX Green, a DNA binding dye that reports on cell death by membrane permeabilization. The peptide concentration that gives 50% cytotoxicity by relative SYTOX Green fluorescence, is denoted EC50. WI-38 cells were grown to confluency in T-75 flasks in complete DMEM (with 15% FBS, plus antibiotics and non-essential amino acids). The day prior to cytotoxicity experiments, cells were trypsinized, removed from the flask, and pelleted. Cells were resuspended in complete DMEM and the cell count was obtained using a cell counter. The cells were then seeded at a density of 10,000 cells/well in a 96-well tissue-culture plate. […] To perform the cytotoxicity assay, media from wells of overnight cell culture plate was removed, washed once with PBS and treated with 50 μl of the peptide and SYTOX™ Green mixture. The plate was read for fluorescence, every 5 minutes, for an hour at the excitation wavelength of 385 nm and emission wavelength of 530 nm. MelP5, a potent MPP, that causes 100% SYTOX™ Green entry into the cells was used as a positive control to normalize the cytotoxicity of peptides tested. MIC values were reported in μM peptide against gram-negative E. coli (EC), P. aeruginosa (PA), and gram-positive S. aureus (SA). […] The column marked “EC 50” contains the concentration of peptide that kills 50% of WI-38 human fibroblast cells assayed by entry of SYTOX™ Green DNA binding dye.

[2] = fractional hemolysis of 1×10^8 human RBC/ml at 100 μM peptide, Table 3
[3] = fractional hemolysis of human RBCs at 100 μM peptide, Table 2
[4] = 50% cytotoxicity by SYTOX Green, Table 2, read-out: EC50, μM (WI-38 Cells)

| Molecule | Hemolysis at 100 μM (human RBCs; [2]) | Hemolysis at 100 μM (human RBCs; [3]) | MIC in Broth Dilution, K. Pneumoniae, RBC + (K. pneumoniae; Table 3) [µM] | MIC in Broth Dilution, S. Aureus, RBC − (S. aureus) [µM] | MIC, S. aureus, No RBC (S. aureus) [µM] | MIC in Broth Dilution, E. coli, RBC − (E. coli) [µM] | MIC, E. coli, No RBC (E. coli) [µM] | MIC in Broth Dilution, E. coli, RBC + (E. coli) [µM] | MIC, E. coli, 10^9 cells/ml RBC (E. coli) [μM] | Toxicity against WI-38 cells (in words) [1] | Hemolysis at 100 μM (human RBCs) | EC50 [1, 4] [µM] | EC50 ([1]; kills 50% of WI-38 cells, SYTOX Green entry, Table 3, read-out: EC50, μM (WI-38)) [µM] | MIC in Broth Dilution, K. Pneumoniae, RBC − (K. pneumoniae; absence of RBC, Table 3) [µM] | MIC, K. pneumoniae, No RBC (K. pneumoniae; no RBC, Table 2) [µM] | MIC, K. pneumoniae, 10^9 cells/ml RBC (K. pneumoniae; Table 2) [μM] | MIC in Broth Dilution, S. Aureus, RBC + (S. aureus) [µM] | MIC, S. aureus, 10^9 cells/ml RBC (S. aureus) [μM] |
| --- | --- | --- | --- | --- | --- | --- | --- | --- | --- | --- | --- | --- | --- | --- | --- | --- | --- | --- |
| CC(C)C[C@@H]1NC(=O)[C@H](CCCNC(=N)N)NC(=O)[C@H](CCCNC(=N)N)NC(=O)[C@H](C)NC(=O)[C@H](Cc2c[nH]c3ccccc23)NC(=O)[C@H](CCCNC(=N)N)NC(=O)[C@H](CCCNC(=N)N)NC(=O)[C@H](CCCNC(=N)N)NC(=O)[C@H](CCCNC(=N)N)NC(=O)[C@H](Cc2ccccc2)NC(=O)[C@H](C)NC(=O)[C@H](Cc2ccccc2)NC(=O)[C@H](C)NC1=O [CYCLIZED-L-CONGA-OH] (cyclo(RRWARRLAFAFRR)) | 0.7 | 0.7 | 6 | 20 (≈ 34.9 µg/mL) | 20 (≈ 34.9 µg/mL) | 5.9 (≈ 10.3 µg/mL) | 5.9 (≈ 10.3 µg/mL) | 13.3 | 13.3 | – | – | – | – | – | – | – | – | – |
| CC(C)C[C@@H](NC(=O)CCNC(=O)[C@@H](CCCNC(=N)N)NC(=O)[C@@H](CCCNC(=N)N)NC(=O)[C@@H](C)NC(=O)[C@@H](Cc1c[nH]c2ccccc12)NC(=O)[C@@H](CCCNC(=N)N)NC(=O)[C@H](N)CCCNC(=N)N)C(=O)N[C@H](C)C(=O)N[C@H](Cc1ccccc1)C(=O)N[C@H](C)C(=O)N[C@H](Cc1ccccc1)C(=O)N[C@H](CCCNC(=N)N)C(=O)N[C@H](CCCNC(=N)N)C(N)=O [D-CONGA-βa7, rrwarr-βa-lafafrr (All D)] (H-[dR][dR][dW][dA][dR][dR][βAla][dL][dA][dF][dA][dF][dR][dR]-NH2) | – | – | – | – | – | – | – | – | – | least toxic of the variants | 0.02 | – | – | – | – | – | – | – |
| CC(C)C[C@@H]1NC(=O)[C@H](CCCNC(=N)N)NC(=O)[C@H](CCCNC(=N)N)NC(=O)[C@H](C)NC(=O)[C@H](Cc2c[nH]c3ccccc23)NC(=O)[C@H](CCCNC(=N)N)NC(=O)[C@H](CCCNC(=N)N)NC(=O)CC[C@@H](C(N)=O)NC(=O)[C@H](CCCNC(=N)N)NC(=O)[C@H](CCCNC(=N)N)NC(=O)[C@H](Cc2ccccc2)NC(=O)[C@H](C)NC(=O)[C@H](Cc2ccccc2)NC(=O)[C@H](C)NC1=O [CYCLIZED-L-CONGA-E] (RRWARRLAFAFRRE-NH2; lactam N-14) | 0.03 | 0.03 | >30 | >30 | 30 (≈ 56.2 µg/mL) | 22.9 (≈ 42.9 µg/mL) | 24 (≈ 44.9 µg/mL) | >30 | 30 | – | – | – | – | – | – | – | – | – |
| rrwa (nor r, nor r)lafafrr [D-CONGA-NorR] | – | – | 11.8 | 7.6 | 7.6 | 1.9 | 1.9 | 2.4 | 2.4 | – | – | 66 | 66 | 13.3 | 13 | 12 | 17.2 | 17.2 |
| CC(C)C[C@@H](NC(=O)[C@@H](CCCNC(=N)N)NC(=O)[C@@H](CCCNC(=N)N)NC(=O)[C@@H](C)NC(=O)[C@@H](Cc1c[nH]c2ccccc12)NC(=O)[C@@H](CCCNC(=N)N)NC(=O)[C@H](N)CCCNC(=N)N)C(=O)N[C@H](C)C(=O)N[C@H](Cc1ccccc1)C(=O)N[C@H](C)C(=O)N[C@H](Cc1ccccc1)C(=O)N[C@H](CCCNC(=N)N)C(=O)N[C@H](CCCNC(=N)N)C(N)=O [D-CONGA, rrwarrlafafrr (All D), reference compound] (H-[dR][dR][dW][dA][dR][dR][dL][dA][dF][dA][dF][dR][dR]-NH2) | – | – | – | 5.7 (≈ 10 µg/mL) | 5.7 (≈ 10 µg/mL) | – | 1.0 (≈ 1.76 µg/mL) | – | 0.8 | – | 0.06 | 110 | – | – | – | 3.8 | 6.3 | 6.3 |

Source: US20230310540A1, “PEPTIDE COMPOSITIONS AND METHODS OF USE THEREOF” (priority 2020, published 2023)
